The target in test [1] is T1, dihydrofolate reductase (CauDHFR) (Candidozyma auris, UniProt A0A0L0P1H8).
T1 construct: gene QG37_02791; His-tag-removed CauDHFR
T1 sequence (A0A0L0P1H8 1-204): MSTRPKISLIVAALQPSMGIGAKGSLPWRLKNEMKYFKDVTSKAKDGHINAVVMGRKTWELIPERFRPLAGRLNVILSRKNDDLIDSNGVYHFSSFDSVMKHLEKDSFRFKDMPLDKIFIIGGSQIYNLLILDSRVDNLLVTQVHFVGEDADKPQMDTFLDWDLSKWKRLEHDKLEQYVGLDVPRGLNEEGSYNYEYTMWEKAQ
Description: ([…] Å); DSF shift +[…] °C; NADPH-consumption IC50. The class given is biochemical.

Another test concerns T2, C. albicans.
T2 construct: SC 5314
Description: microbe, parasite or virus in culture. Details: species or system Candida yeast. As to conditions: Candida albicans, 24 h, 50% growth inhibition end point. The method, then:
(§1) The antifungal activity of DHFR inhibitors was evaluated against C. albicans (SC 5314), C. glabrata (ATCC 2001) and C. auris (CBS 12766) by the broth microdilution technique (CLSI, 2017[▸]). DHFR inhibitors were serially diluted (1:2) in RPMI 1640 medium buffered with 0.165 M 3-(N-morpholino)propanesulfonic acid in 96-well flat-bottom plates and yeast suspension was added to the wells to obtain a final yeast concentration of 0.5–2.5 × 10^3 CFU ml^−1 and final concentrations of DHFR inhibitors in the range 1–500 µg ml^−1. […] Studies were then performed against Candida spp. yeasts, with the addition of two more antifolates: diaveridine (DIA) and pemetrexed (PMX) (Supplementary Table S1). The inhibitory effect of these inhibitors on the fungal growth of C. albicans, C. glabrata and C. auris was tested using the broth microdilution assay. […] (Supplementary Table S1), including C. auris, supporting the lack of affinity seen in the IC50 assay (Table 2 ▸).

Another test concerns T3, C. glabrata.
T3 construct: ATCC 2001
Description: microbe, parasite or virus in culture. Details: species or system Candida yeast. Particulars: Nakaseomyces glabratus, 24 h, 50% growth inhibition end point. The method, then:
as §1

A further test concerns T4, C. auris.
T4 construct: CBS 12766
Description: microbe, parasite or virus in culture. Details: species or system Candida yeast. As to conditions: Candidozyma auris, 24 h, 50% growth inhibition end point. The procedure:
as §1

Converted amounts (≈) assume the structure as drawn. Where two headings read alike, the source gives them in different places.

In the case of `CC1(C)N=C(N)N=C(N)N1c1ccc(Cl)cc1` [CYG, cycloguanil], the IC50 – broadly, the concentration needed to halve the response being measured – in test [1] was determined as 401 µM. Also, the MIC was 500 mg/L (≈ 1990 µM) in the test with C. albicans (read-out: MIC cycloguanil), 500 mg/L (≈ 1990 µM) in the test on C. glabrata (read-out: MIC cycloguanil) and over 500 mg/L with C. auris (read-out: MIC cycloguanil).

Turning to `CN(Cc1cnc2nc(N)nc(N)c2n1)c1ccc(C(=O)N[C@@H](CCC(=O)O)C(=O)O)cc1` [MTX, methotrexate], the values for the MIC with C. albicans (read-out: MIC methotrexate), with C. glabrata (read-out: MIC methotrexate) and in the test on C. auris (read-out: MIC methotrexate) were 250 mg/L (≈ 550 µM), over 500 mg/L and over 500 mg/L, respectively.

On to `CCc1nc(N)nc(N)c1-c1ccc(Cl)cc1` [PYR, pyrimethamine], for which the MIC in the test on C. albicans (read-out: MIC pyrimethamine) is 62.5 mg/L (≈ 251 µM); with C. glabrata (read-out: MIC pyrimethamine) it was 62.5 mg/L (≈ 251 µM); in the test with C. auris (read-out: MIC pyrimethamine) it was 125 mg/L (≈ 503 µM).

`COc1cc(Cc2cnc(N)nc2N)cc(OC)c1OC` [TMP, trimethoprim]: the MIC in the test on C. albicans (read-out: MIC trimethoprim) was 500 mg/L (≈ 1720 µM); in the test on C. glabrata (read-out: MIC trimethoprim), 500 mg/L (≈ 1720 µM); in the test on C. auris (read-out: MIC trimethoprim), over 500 mg/L.

`COc1ccc(Cc2cnc(N)nc2N)cc1OC` [diaveridine]: the MIC with C. albicans (read-out: MIC diaveridine) is over 500 mg/L; in the test on C. glabrata (read-out: MIC diaveridine) it was 500 mg/L (≈ 1920 µM); in the test with C. auris (read-out: MIC diaveridine), over 500 mg/L.

In the case of `Nc1nc2[nH]cc(CCc3ccc(C(=O)N[C@@H](CCC(=O)O)C(=O)O)cc3)c2c(=O)[nH]1` [pemetrexed], the MIC in the test with C. albicans (read-out: MIC pemetrexed) was 500 mg/L (≈ 1170 µM); with C. glabrata (read-out: MIC pemetrexed) it was 500 mg/L (≈ 1170 µM); with C. auris (read-out: MIC pemetrexed) it was over 500 mg/L.

(Values after publication PMC10394672, “Crystal structure of dihydrofolate reductase from the emerging pathogenic fungus Candida auris” (Acta Crystallographica. Section D, Structural Biology, 2023).)
